The values that follow come from patent US6878522B2, “Methods for the identification of compounds useful for the treatment of disease states mediated by prostaglandin D2” (priority 2000, dated 2005).

pEC50: −log10 of the molar value.

What is called pEC50 is the EC50 on a negative log10 scale, so that one unit is a factor of ten.

Experiment [1] has as its target T1, CRTH2 (Homo sapiens, UniProt Q9Y5Y4).
T1 construct: prolactin (prolac) signal peptide (N); expressed in transfected cells; host or cells: 300-19 cells (transformed murine pre-B lymphocytes)
T1 sequence (Q9Y5Y4 1-395): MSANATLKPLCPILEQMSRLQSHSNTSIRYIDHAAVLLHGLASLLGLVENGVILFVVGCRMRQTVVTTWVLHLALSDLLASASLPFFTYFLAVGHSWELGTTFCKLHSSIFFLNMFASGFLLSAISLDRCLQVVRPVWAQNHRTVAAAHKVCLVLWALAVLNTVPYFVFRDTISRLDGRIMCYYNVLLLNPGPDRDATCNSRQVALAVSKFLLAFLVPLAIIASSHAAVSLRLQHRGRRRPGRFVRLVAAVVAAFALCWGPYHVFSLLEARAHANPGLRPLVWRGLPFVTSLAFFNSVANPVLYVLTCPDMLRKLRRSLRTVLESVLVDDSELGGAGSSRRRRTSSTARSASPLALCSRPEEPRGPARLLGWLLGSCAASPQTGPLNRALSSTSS
The experiment in a line: Competition with 3H-PGD2 binding at the CRTH2 receptor (Examples 6-9). Conditions: from IC50 at CRTH2 and at DP. The protocol:
To directly determine the binding affinity of CRTH2 for PGD2, the following binding assay was used. Transfected and parental 300-19 cells were washed twice at room temperature with assay buffer, and resuspended at a concentration of 2×10^7 cells/ml. Using a 96-well U-bottom polypropylene plate (Costar, Corning Inc., Acton, Mass.), the assay was set up as follows: 50 μl of vehicle (0.3% DMSO in assay buffer, total wells) or of […] cold PGD2 (NS wells); 50 μl cells (2×10^7 cells/ml for 10^6 cells per well); 50 μl 6 nM [3H]-PGD2. The plate was allowed to incubate for 20 min at RT before centrifugation (2800 rpm, Sorval RT6000, 5 min, 4° C.). The plate was harvested (Packard Unifilter plate GF/C, previously soaked in 3% PEI for at least 1 hr) with cold assay buffer using a Packard Filtermate Cell Harvester (6×150 μl buffer wash per well). The filterplate was dried overnight. After the addition of 50 μl scintillation fluid (Packard Microscint 0), the plate was counted in a Packard Topcount scintillation counter (1 min per well). […] The solutions of labeled PGD2 and unlabeled “cold” PGD2 were prepared as follows: 10 μl of [^3H]-PGD2 (Amersham lot # TRK734 162 Ci/mmol, 0.1 Ci/ml in methanol: water: acetonitrile (3:2:1), 617 nM) per ml assay buffer was used to prepare a solution of [^3H]-PGD2 at a concentration of 6 nM (50 μl/well for final conc. of 2 nM); cold PGD2 (Biomol #PG-005, lot # P4653) was dissolved in DMSO for a stock of 10 mM (stored at −20° C.). The 10 mM stock was diluted 3:1000 to obtain a final concentration of […] (50 μl/well for final conc. of […]). Assay buffer: Hank's balanced saline supplemented with HEPES and sodium bicarbonate: 100 ml/L of 10× Hank's Balanced saline (with Ca^+2, Mg^+2); 10 ml/L of 1M HEPES; 4.7 ml/L of 7.5% Sodium Bicarbonate.
In the assay, the capacity of each D-ring compound to compete with binding of ^3H-PGD2 was measured at both the CRTH2 and DP receptors, and an IC50 value (in μM) was determined. […] The binding assay procedure of Example 1 was used. Preferably, the ratio of IC50 at CRTH2 to IC50 at DP is less than about twenty, and more preferably is […].

In experiment [2] the test system is isolated human eosinophils. The experiment in a line: [Ca2+]i mobilization in isolated human eosinophils. The format is cell-based. The text has this:
Calcium mobilization can be detected and measured by flow cytometry, and by labeling with fluorescent dyes that are trapped intracellularly. […] The ratio of fluorescence produced by the calcium-bound dye to that produce by the unbound dye is used to estimate the intracellular calcium concentration. In one embodiment, for example, the following method can be used. Cells that express CRTH2 are collected, and resuspended in fresh media at ˜2×10^5/ml the day before performing the calcium flux assay. Cells are incubated at 37° C. for not longer than 20-30 minutes, and then spun down and resuspended in 50 ml fresh PTI buffer (Hank's Buffer, pH 7.2-7.4; 10 mM Hepes; 1.6 mM CaCl2) containing Indo-1 AM, pre-warmed to 37° C., at a concentration of 10 million per ml. Cells are excited, and fluorescence is measured using a fluorimeter (Photon Technology Corporation, International). After the readout has stabilized, the time axis is reset, and PGD2 is added at a specific time point (e.g., 20 seconds). After response, the following reagents are added to the cuvette, to release and chelate total calcium, in the following order: 20 μl of 18% Triton X-100, 20 μl of 3M Tris, pH 8.5, and 20 μl of 0.5 M EGTA, pH 8.5. The experiment is repeated in the presence and the absence of a test compound. […] Therefore, in the presence of an […] test compound, the EC50 would be expected to be higher than this value, whereas in the presence of an agonist test compound, the EC50 would be expected to decrease.

Experiment [3] has as its system isolated human eosinophils. The experiment in a line: Reactive oxygen species (ROS) release in isolated human eosinophils. The format is cell-based. The protocol: Another secondary assay is the reactive oxygen species release assay. One measure of PGD2-induced activation of CRTH2 cells, such as eosinophils, is the intracellular release of reactive oxygen species. This can be tested in a reactive oxygen species release assay, or ROS, using lucigenin-dependent chemiluminescence to measure reactive oxygen species release. In this method, freshly isolated eosinophils are prepared, by standard methods, and resuspended at concentration 2-4×10^6 cells/ml in (RPMI; 10 mM HEPES; 1× Pen/Strep; 0.5% FBS) at room temperature. Immediately prior to use, 1 ml of cell suspension is added to 9 ml of buffer, prewarmed to 37° C. for 15 minutes, and added 0.5 ml of 200 mM Lucigenin.
Test compounds (made as 10,000× DMSO stocks) are diluted in buffer with DMSO (1.5 ul of DMSO/2.5 ml Buffer) and 25 μl/well added to white 96-well culture plate and placed in a 37° C. incubator. Isolated cells (held at room temperature) are diluted with room temperature buffer to 2-4×10^6 cells/ml, and incubated in a water bath at 37° C. for 15 minutes. At 15 minutes, 0.5 ml 200 mM lucigenin (bis-N-Methylacridinium Nitrate; Sigma, St. Louis, Mo.) is added to 10 ml of the cell suspension, mixed, and 100 μl/well is added to the prewarmed microtiter plate. The plate is returned to 37° C. for 5 minutes, at which time 25 μl of stimulus is added) The plate is read in the luminometer for 8 cycles. The luminescence of test compounds can be tested in the presence of PGD2, relative to a control sample containing PGD2 alone. A compound that interferes with the ability of PGD2 to result in intracellular reactive oxygen species release in CRTH2 cells, is a candidate for a CRTH2 antagonist.

For experiment [4], the system named is isolated human eosinophils. The experiment in a line: Chemotaxis of isolated human eosinophils. The format is cell-based. How it is done:
In a specific example of this method, a competitive assay is performed to test compounds for their ability to interrupt the attraction of CRTH2 cells to PGD2. In this method, test compounds are diluted into the bottom wells of the Boyden chemotaxis chamber. A constant amount of PGD2 is also added to this dilution series, at a concentration known to have a chemotactic effect on CRTH2 cells. As a control, at least one aliquot contains only PGD2. Cells expressing CRTH2 are resuspended at 3-3.5×10^6 cells/ml in RPMI 1640 supplemented with 10 mM HEPES and 1 mg/ml bovine serum albumin (Sigma, St. Louis, Mo.), and placed into the upper wells of the chamber. The chambers are incubated for 90-120 minutes at 37° C. in a humidified CO2 incubator. After the incubation period, the number of migrating cells on the lower surface of the membrane filter is counted using light microscopy. The contribution of the test compound to the chemotactic activity of PGD2 is measured by comparing the chemotactic activity of the aliquots containing only PGD2 with the activity of aliquots containing test compound and PGD2. If addition of the test compound to the PGD2 solution results in a […] in the number of cells detected on the lower surface of the membrane relative to the number of cells detected using a solution containing only PGD2, then there is identified an antagonist of PGD2 induction of chemotactic activity of cells expressing CRTH2. In contrast, if the addition of the test compound to the PGD2 solution results in a […] in the number of cells detected on the lower surface of the membrane (relative to the number of cells detected using a solution containing only PGD2), then an […] of PGD2 induction of chemotactic activity of cells expressing CRTH2 is identified.
The chemotactic response of human T lymphocytes to PGD2, murine MDC and murine mSDF was also assayed. Chemotaxis was determined using a 48-well Boyden chamber (Neuroprobe, Cabin John, Md.), and 3.0 μm polycarbonate filters. Cells were resuspended (3-3.5×10^6 cells/ml) in RPMI 1640 supplemented with 10 mM HEPES and 1 mg/ml bovine serum albumin (Sigma, St. Louis, Mo.), and placed into the upper wells of the chamber. The compound to be tested was placed in the lower wells. The chambers were incubated for 90-120 minutes at 37° C. in a humidified CO2 incubator. At the end of the incubation period, the number of migrating cells on the filter (expressed per high power field) were enumerated microscopically. […] In FIG. 4, the chemotactic response of human basophils to PGD2 and C5a is shown.

Experiment [5] concerns human whole blood eosinophil. The experiment is described as follows: Human whole blood eosinophil actin-polymerization response. Conditions: read-out: Actin-polymer EC50. The format is cell-based. The source says: Yet another secondary screening assay is an actin polymerization assay. Another biological effect of the interaction of PGD2 with CRTH2 is actin polymerization. Thus, an actin polymerization assay may be used as a secondary screen to characterize the activity of a compound isolated in the primary screening assays of the invention. In one embodiment, actin polymerization may be assayed using an actin-specific fluorescent label, nitrobenzoxadiazole (NBD)-phallacidin, which binds polymerized actin fiber. In a specific embodiment, the assay may be performed as follows: cell preparations are resuspended at 5-10×10^6 cells/ml in RPMI 1640 plus 10 mM HEPES, 100/10 Pen/Strep, and 0.5% FCS. The cell suspension is aliquoted (100 μL per well) into a 96-well U-bottom polypropylene microtiter plate. 50 ul of the appropriate stimulus (PGD2 or test compound, or both PGD2 and test compound) is added using an 8-channel pipette followed exactly 25 seconds later by 50 ul of a stopping solution which contains lysophosphotidylcholine (0.5 mg/ml), Hank's balanced salt solution (100 ul 10×), 16% formaldehyde (800 ul), and 6.6 uM NBD-phallacidin in MEOH (100 ul). The plate is allowed to sit at room temperature for 15 minutes. The plate is then centrifuged at 1000 rpm for 5 minutes, the supernatants flicked off and the cell pellets resuspended in 250 ul PBS plus 2%FCS and 0.2% sodium azide. Each sample is then read on a FACS Caliber instrument. Cells are gated using the forward scatter/side scatter data in the lymphocyte area. Responses are measured by the change in median FL-1 fluorescence between vehicle treated cells and stimulus treated cells. Test compounds can be assayed in the presence and absence of PGD2, and compared to a sample containing PGD2 alone. A compound that reduces PGD2-induced actin polymerization of CRTH2 cells is identified as a candidated CRTH2 antagonist.

Experiment [6] addresses T1, CRTH2. The experiment is described as follows: [Ca2+]i mobilization assay in 300-19 cells expressing CRTH2. The format is cell-based. Conditions: CRTH2 stable cell line (300-19 transfectants).
Excerpt: Using 300-19 cells (transformed pre-B lymphocytes) expressing CRTH2, a number of mast cell and non-mast cell-derived mediators were screened in a [Ca^2+]i mobilization assay. […]

As to `CCCCCC(=O)CCC1C(=O)CC(O)C1C/C=C\CCCC(=O)O` (stereo not drawn) [13,14-dihydro-15-keto PGD2], on CRTH2 [1], the “selectivity for the CRTH2 receptor (in comparison with DP)” value (“selectivity for the CRTH2 receptor” below) is given as “particularly selective for CRTH2”.

Consider `CCCCC[C@@](C)(O)/C=C/[C@H]1C(=O)C[C@H](O)[C@@H]1C/C=C\CCCC(=O)O` [15(R)15-methyl PGD2], for which the “selectivity for the CRTH2 receptor” value on CRTH2 [1] was “particularly selective for CRTH2”.

For `CCCCC/C=C\C=C1\C(=O)CC(O)C1C/C=C\CCCC(=O)O` (stereo not drawn) [15-deoxy-delta 12, 14, PGD2], on CRTH2 [1], the “selectivity for the CRTH2 receptor” value is given as “particularly selective for CRTH2”.

As to `CCCCC[C@H](O)/C=C/[C@@H]1[C@@H](C/C=C\CCCC(=O)O)[C@H]2CO[C@@H]1C2` [Compound U-46619], the values for the pEC50 in experiment [2] and in experiment [3] were less than 6.00 and less than 7.00, respectively.

For the compound `CCCCC[C@H](O)/C=C/[C@@H]1[C@H]2C/C(=C/CCCC(=O)O)O[C@H]2C[C@H]1O` [PG12], the pEC50 was less than 7.00 in experiment [4], less than 6.00 in experiment [2], less than 4.00 in experiment [5] and less than 6.00 in experiment [3].

As to `CCCCC[C@H](O)/C=C/[C@H]1[C@H](O)CC(=O)[C@@H]1CCCCCCC(=O)O` [PGE1], the pEC50 in experiment [4] was less than 7.00; in experiment [2], less than 6.00; in experiment [5] it was less than 4.00; in experiment [3] it was less than 7.00.

As to `CCCCC[C@H](O)/C=C/[C@@H]1[C@@H](C/C=C\CCCC(=O)O)[C@@H](O)C[C@@H]1O` [Pa, 11b-PGF2], the pEC50 in experiment [4] is less than 7.00; in experiment [5] it was less than 6.00; in experiment [3], less than 7.00.

PGJ2: the pEC50 in experiment [4] was less than 7.00; in experiment [2] it was 6.89; in experiment [5], 5.74; at CRTH2 [6] it was 6.70; in experiment [3], 7.12.
